The nature of test [1]: Compound was tested for Inhibition of influenza A [influenza A/Shandong/09/93 (H3N2)] neuraminidase. More on the design: species or system Influenza A virus.
Another test relates to MDCK. As to the kind of experiment: Inhibitory activity against Influenza virus in MDCK cells. In kind it is functional, cell-based. To be noted: Canis lupus familiaris.

In test [1], `CC(=O)N[C@H]1[C@H]([C@H](O)[C@H](O)CO)OC(C(=O)O)=C[C@@H]1NC(=N)N` [ZANAMIVIR] displayed an IC50 of 0.005 µM and a Ki of 0.001 µM. In the test on MDCK, the EC50 is 0.04 µM.
As for `CC(=O)Nc1c(NC(=N)N)cc(C(=O)O)cc1[C@H](O)[C@H](O)CO`, in test [1], the IC50 is greater than 100 µM and the Ki is greater than 100 µM.

Source of the values: ChEMBL document CHEMBL1151025, “Synthesis and influenza neuraminidase inhibitory activity of aromatic analogues of sialic acid” (Bioorg Med Chem Lett, 1995).
